26 compounds from patent US12187684B2, “Benzimidazole derivatives as modulators of retinoid-related orphan receptor gamma (RORγ) and pharmaceutical use thereof” (Jiangsu Hengrui Medicine Co., Ltd., priority 2018, dated 2025) can be followed below.

SMILES strings stand for the structures.

This test deals with T1, RORγ LBD-GST tagged (Homo sapiens, UniProt P51449).
T1 construct: RORγ LBD-GST tagged (Cat No. RORC-114H, Creative Biomart); purchased Creative Biomart RORC-114H
T1 sequence (P51449 269-508 limits assumed): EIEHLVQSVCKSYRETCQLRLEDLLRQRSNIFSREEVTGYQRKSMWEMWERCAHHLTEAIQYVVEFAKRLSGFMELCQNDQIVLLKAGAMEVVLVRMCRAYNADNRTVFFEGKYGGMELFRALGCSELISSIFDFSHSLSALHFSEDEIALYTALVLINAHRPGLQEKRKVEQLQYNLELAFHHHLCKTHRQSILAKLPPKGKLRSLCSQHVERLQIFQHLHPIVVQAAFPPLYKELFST
The experiment in a line: LanthaScreen TR-FRET RORγ coactivator assay. It is filed as biochemical. The settings on record: Fluorescein-D22 coactivator peptide, 1 hour room temperature. From the text:
LanthaScreen TR-FRET Retinoid-Related Orphan Receptor Gamma (RORγ) Coactivator Assay Materials and Reagents • 1. […] Fluorescein-D22 coactivator peptide (Cat No. PV4386, Invitrogen) • 3. LanthaScreen™ Tb anti-GST antibody (Cat No. PV3550, Invitrogen) • 4. TR-FRET coregulatory buffer D (Cat No, PV4420, Invitrogen) • 5. DTT (Cat No. P2325, Fisher) • 6. […] Tecan Infinite M1000 plate reader (Tecan) Experimental Procedure Prepare Complete TR-FRET Coregulator Buffer D by adding 1 M DTT to TR-FRET Coregulator Buffer D to the final concentration of 5 mM DTT. Make compound dilution in Complete TR-FRET Coregulator Buffer D. Highest dose is 3 μM, 7-folder dilution for total 7 doses. Add 10 μL to each well of a 384-well plate. For the negative and positive controls, add 10 μL of Complete TR-FRET Coregulator Buffer D. Prepare RORγ LBD using Complete TR-FRET Coregulator Buffer D. The final concentration of RORγ LBD is 25 ng/reaction. Add 5 μL RORγ LBD to all the wells of the 384-well assay plate except negative wells which adding 5 μL Complete TR-FRET Coregulator Buffer D. Prepare a solution containing 0.6 μM Fluorescein-D22 and 8 nM Tb anti-GST antibody using Complete TR-FRET Coregulator Buffer D. Add 5 μL to all wells of the 384-well assay plate. Briefly and gently mix the 384-well plate on a plate shaker and incubate at room temperature protected from light for 1 hour. The plate may be sealed with a cover to minimize evaporation. Read the plate at wavelengths of 520 nm and 495 nm on Tecan Infinite M1000. IC50 values were calculated using GraphPad Prism by plotting the logarithm of compounds concentration versus percent inhibition.
(Time-resolved FRET reads energy transfer from a long-lived donor to a nearby acceptor.)
On to `CCS(=O)(=O)c1ccc(C(N)c2nc3c(Cl)c(-c4ccccc4OC(F)(F)F)c(Cl)cc3[nH]2)cc1` (centres unmarked) [Example 43, (4,6-dichloro-5-(2-(trifluoromethoxy)phenyl)-1H-benzo[d]imidazol-2-yl)(4-(ethylsulfonyl)phenyl)methanamine], for which the IC50 – broadly, the concentration needed to halve the response being measured – is 0.656 µM.
Compound `CCS(=O)(=O)c1ccc(C(NC(C)=O)c2nc3c(Cl)c(-c4ccccc4OC(F)(F)F)c(Cl)cc3[nH]2)cc1` (centres unmarked) [Example 44, N-((4,6-dichloro-5-(2-(trifluoromethoxy)phenyl)-1H-benzo[d]imidazol-2-yl)(4-(ethylsulfonyl)phenyl)methyl)acetamide] showed a 50% inhibitory concentration (IC50) of 0.026 µM.
To `CS(=O)(=O)c1ccc(Cc2nc3c(Cl)c(-c4ccccc4C(F)(F)F)c(Cl)cc3[nH]2)cc1` [Example 45, 4,6-dichloro-2-(4-(methylsulfonyl)benzyl)-5-(2-(trifluoromethyl)phenyl)-1H-benzo[d]imidazole] belongs 0.535 µM; to `CS(=O)(=O)c1ccc(Cc2nc3c(Cl)c(-c4ccccc4OC(F)F)c(Cl)cc3[nH]2)cc1` [Example 47, 4,6-dichloro-5-(2-(difluoromethoxy)phenyl)-2-(4-(methylsulfonyl)benzyl)-1H-benzo[d]imidazole], 0.196 µM.
To `CS(=O)(=O)c1ccc(C(CO)c2nc3c(Cl)c(-c4ccccc4OC(F)F)c(Cl)cc3[nH]2)cc1` (centres unmarked) [Example 48, 2-(4,6-dichloro-5-(2-(difluoromethoxy)phenyl)-1H-benzo[d]imidazol-2-yl)-2-(4-(methylsulfonyl)phenyl)ethanol] belongs 0.445 µM; to `CS(=O)(=O)c1ccc(C(O)c2nc3c(Cl)c(-c4ccccc4OC(F)F)c(Cl)cc3[nH]2)cc1` (centres unmarked) [Example 49, (4,6-dichloro-5-(2-(difluoromethoxy)phenyl)-1H-benzo[d]imidazol-2-yl)(4-(methylsulfonyl)phenyl)methanol], 0.255 µM.
As for `CCCS(=O)(=O)c1ccc(Cc2nc3c(Cl)c(-c4ccccc4OC(F)(F)F)c(Cl)cc3[nH]2)cc1` [Example 50, 4,6-dichloro-2-(4-(propylsulfonyl)benzyl)-5-(2-(trifluoromethoxy)phenyl)-1H-benzo[d]imidazole], the figure is 0.284 µM; as for `CCCS(=O)(=O)c1ccc(C(CO)c2nc3c(Cl)c(-c4ccccc4OC(F)(F)F)c(Cl)cc3[nH]2)cc1` (centres unmarked) [Example 51, 2-(4,6-dichloro-5-(2-(trifluoromethoxy)phenyl)-1H-benzo[d]imidazol-2-yl)-2-(4-(propylsulfonyl)phenyl)ethanol], 0.646 µM; as for `CCCS(=O)(=O)c1ccc(C(O)c2nc3c(Cl)c(-c4ccccc4OC(F)(F)F)c(Cl)cc3[nH]2)cc1` (centres unmarked) [Example 52, (4,6-dichloro-5-(2-(trifluoromethoxy)phenyl)-1H-benzo[d]imidazol-2-yl)(4-(propylsulfonyl)phenyl)methanol], 0.135 µM.
`COCCS(=O)(=O)c1ccc(Cc2nc3c(Cl)c(-c4ccccc4OC(F)(F)F)c(Cl)cc3[nH]2)cc1` [Example 53, 4,6-dichloro-2-(4-((2-methoxyethyl)sulfonyl)benzyl)-5-(2-(trifluoromethoxy)phenyl)-1H-benzo[d]imidazole] registered a half-inhibitory concentration (IC50) of 0.575 µM.
To `COCCS(=O)(=O)c1ccc(C(CO)c2nc3c(Cl)c(-c4ccccc4OC(F)(F)F)c(Cl)cc3[nH]2)cc1` (centres unmarked) [Example 54, 2-(4,6-dichloro-5-(2-(trifluoromethoxy)phenyl)-1H-benzo[d]imidazol-2-yl)-2-(4-((2-methoxyethyl)sulfonyl)phenyl)ethanol] belongs 0.367 µM; to `COCCS(=O)(=O)c1ccc(C(O)c2nc3c(Cl)c(-c4ccccc4OC(F)(F)F)c(Cl)cc3[nH]2)cc1` (centres unmarked) [Example 55, (4,6-dichloro-5-(2-(trifluoromethoxy)phenyl)-1H-benzo[d]imidazol-2-yl)(4-((2-methoxyethyl)sulfonyl)phenyl)methanol], 0.194 µM.
Compound `CS(=O)(=O)c1ccc(Cc2nc3c(Cl)c(-c4ccccc4OC(F)(F)F)c(Cl)cc3[nH]2)cc1` [Example 56, 4,6-dichloro-2-(4-(methylsulfonyl)benzyl)-5-(2-(trifluoromethoxy)phenyl)-1H-benzo[d]imidazole] came in with a 50% inhibitory concentration (IC50) of 0.879 µM.
In the case of `CS(=O)(=O)c1ccc(C(CO)c2nc3c(Cl)c(-c4ccccc4OC(F)(F)F)c(Cl)cc3[nH]2)cc1` (centres unmarked) [Example 57, 2-(4,6-dichloro-5-(2-(trifluoromethoxy)phenyl)-1H-benzo[d]imidazol-2-yl)-2-(4-(methylsulfonyl)phenyl)ethanol], the half-inhibitory concentration (IC50) came out at 0.187 µM.
As for `CS(=O)(=O)c1ccc(C(O)c2nc3c(Cl)c(-c4ccccc4OC(F)(F)F)c(Cl)cc3[nH]2)cc1` (centres unmarked) [Example 58, (4,6-dichloro-5-(2-(trifluoromethoxy)phenyl)-1H-benzo[d]imidazol-2-yl)(4-(methylsulfonyl)phenyl)methanol], the figure is 0.266 µM.
As for `O=S(=O)(CC(F)(F)F)c1ccc(Cc2nc3c(Cl)c(-c4ccccc4OC(F)(F)F)c(Cl)cc3[nH]2)cc1` [Example 59, 4,6-dichloro-2-(4-((2,2,2-trifluoroethyl)sulfonyl)benzyl)-5-(2-(trifluoromethoxy)phenyl)-1H-benzo[d]imidazole], the figure is 0.433 µM; as for `O=S(=O)(CC(F)(F)F)c1ccc(C(CO)c2nc3c(Cl)c(-c4ccccc4OC(F)(F)F)c(Cl)cc3[nH]2)cc1` (centres unmarked) [Example 60, 2-(4,6-dichloro-5-(2-(trifluoromethoxy)phenyl)-1H-benzo[d]imidazol-2-yl)-2-(4-((2,2,2-trifluoroethyl)sulfonyl)phenyl)ethanol], 0.409 µM.
As for `O=S(=O)(CCF)c1ccc(Cc2nc3c(Cl)c(-c4ccccc4OC(F)(F)F)c(Cl)cc3[nH]2)cc1` [Example 61, 4,6-dichloro-2-(4-((2-fluoroethyl)sulfonyl)benzyl)-5-(2-(trifluoromethoxy)phenyl)-1H-benzo[d]imidazole], the figure is 0.509 µM.
Consider `O=S(=O)(CCF)c1ccc(C(CO)c2nc3c(Cl)c(-c4ccccc4OC(F)(F)F)c(Cl)cc3[nH]2)cc1` (centres unmarked) [Example 62, 2-(4,6-dichloro-5-(2-(trifluoromethoxy)phenyl)-1H-benzo[d]imidazol-2-yl)-2-(4-((2-fluoroethyl)sulfonyl)phenyl)ethanol], for which 0.154 µM corresponded to half-maximal inhibition (IC50).
To `O=S(=O)(CCF)c1ccc(Cc2nc3c(Cl)c(-c4ccccc4C(F)(F)F)c(Cl)cc3[nH]2)cc1` [Example 63, 4,6-dichloro-2-(4-((2-fluoroethyl)sulfonyl)benzyl)-5-(2-(trifluoromethyl)phenyl)-1H-benzo[d]imidazole] belongs 0.592 µM; to `O=S(=O)(CCF)c1ccc(C(CO)c2nc3c(Cl)c(-c4ccccc4C(F)(F)F)c(Cl)cc3[nH]2)cc1` (centres unmarked) [Example 64, 2-(4,6-dichloro-5-(2-(trifluoromethyl)phenyl)-1H-benzo[d]imidazol-2-yl)-2-(4-((2-fluoroethyl)sulfonyl)phenyl)ethanol], 0.465 µM.
To `O=S(=O)(c1ccc(Cc2nc3c(Cl)c(-c4ccccc4C(F)(F)F)c(Cl)cc3[nH]2)cc1)C(F)(F)F` [Example 65, 4,6-dichloro-5-(2-(trifluoromethyl)phenyl)-2-(4-((trifluoromethyl)sulfonyl)benzyl)-1H-benzo[d]imidazole] belongs 0.015 µM; to `O=S(=O)(CC1CC1)c1ccc(C(O)c2nc3c(Cl)c(-c4ccccc4C(F)(F)F)c(Cl)cc3[nH]2)cc1` (centres unmarked) [Example 71, (4-((cyclopropylmethyl)sulfonyl)phenyl)(4,6-dichloro-5-(2-(trifluoromethyl)phenyl)-1H-benzo[d]imidazol-2-yl)methanol], 0.004 µM; to `O=S(=O)(CC1CC1)c1ccc(C(CO)c2nc3c(Cl)c(-c4ccccc4F)c(Cl)cc3[nH]2)cc1` (centres unmarked) [Example 74, 2-(4-((cyclopropylmethyl)sulfonyl)phenyl)-2-(4,6-dichloro-5-(2-fluorophenyl)-1H-benzo[d]imidazol-2-yl)ethanol], 0.187 µM.
On to `O=S(=O)(CC1CC1)c1ccc(C(O)c2nc3c(Cl)c(-c4ccccc4F)c(Cl)cc3[nH]2)cc1` (centres unmarked) [Example 75, (4-((cyclopropylmethyl)sulfonyl)phenyl)(4,6-dichloro-5-(2-fluorophenyl)-1H-benzo[d]imidazol-2-yl)methanol], for which the midpoint of inhibition, the IC50, lay at 0.006 µM.
As for `CCS(=O)(=O)c1ccc(Cc2nc3c(Cl)c(-c4ccccc4OC(F)(F)F)c(Cl)cc3[nH]2)c(F)c1` [Example 76, 4,6-dichloro-2-(4-(ethylsulfonyl)-2-fluorobenzyl)-5-(2-(trifluoromethoxy)phenyl)-1H-benzo[d]imidazole], the figure is 0.387 µM.
